Entries after “also recorded” stand apart in the source; their conditions may differ.
Legend:
[1] = Experiment 2: serum 25(OH)D3 after 3 wk vitamin D3 supplement; type: in vivo, Male Wistar rats; details: 8 μg/day, relative to marginal-diet group
Description: After 30 days, the rats were divided into three groups of 6: one group continued with no supplement, one group was given daily vitamin D3 supplement, 8 μg/day either by gastric tube, the third received the supplement by application to the skin in 50 μL ethanol. Vitamin D3 was given for 3 wk. The day before the rats were killed, the vitamin D3 dose was supplemented with [^14 C]-labelled vitamin D3, 915,000 cpm per rat. Blood was obtained from the tail of each rat at 3 h, 9 h, and by heart puncture when the rats were anesthetized for killing, 24 h after giving the tracer. The blood was extracted and chromatographed to distinguish [^14 C]-vitamin D3 from the [^14 C]-25(OH)D3generated from it. Radioactivity was also measured in the liver, kidney, and adipose tissue. Serum nonradioactive 25(OH)D3 was also measured.
(§1) Biochemical measurements. 1,25(OH)2 D3 in serum was measured by calf-thymus receptor-binding assay after initial purification of 1,25(OH)2 D3 with C18-OH cartridges (5). For the serum volumes that were minimal, serum was measured out in 50 μL increments, and the final result was adjusted for the volume of sample analyzed. […] The material eluting as 1,25(OH)2 D3 was evaporated and redissolved in acetonitrile: water for further purification with C18-OH cartridges and quantitation by thymus receptor assay, as described for serum. […]

[2] = Experiment 3: serum 1,25(OH)2 D3 during changes in dietary calcium; type: in vivo, Male Wistar rats
From the text: Efficacy in the long-term: ability of oral and dermal vitamin D3 delivery to influence serum 1,25(OH)2 D3 levels in response to changes in dietary calcium.
Male, Wistar rats were obtained at 120-130 g, and placed on a 0.01% calcium, 0.7% phosphate diet that was vitamin D deficient (Teklad Test Diets, Madison, WI) this was for one week to help deplete vitamin D stores. For the next three weeks the rats were fed the vitamin D-deficient diet, but with normal, 0.5%, calcium. […]
as §1

[3] = Experiment 4: urinary calcium to creatinine ratio after gastric or dermal vitamin D3; type: in vivo, rats
Description: Each point represents the mean ±SEM of 7 normal, 250-g rats.
Toxicity: Short-term responses to increasing doses of vitamin D3 given dermally or by gastric tube.
To compare the efficacy of increasing doses of vitamin D3 in the short term. A fatal oral vitamin D3 dose is 14 days of 2600 μg/day (Sheppard RM and DeLuca HF, Arch Biochem Biophys 1980; 202: 43-55). The present experiment was designed to compare effects of doses up to this level, given by gastric tube or dermally.

C=C1CC[C@H](O)C/C1=C/C=C1\CCC[C@]2(C)[C@@H]([C@H](C)CCCC(C)C)CC[C@@H]12 [vitamin D3]
increase in 25(OH)D3 with dermal relative to gastric supplementation [1]: 59%
difference between the two routes in suppression of serum 1,25(OH)2 D3 levels ([2]; 20 nmol/250 g/day): no significant difference between the two routes
serum 1,25(OH)2 D3, effect of supplementation ([2]; 8 μg/day, gastric or dermal, all levels of calcium intake): lower serum 1,25(OH)2 D3 concentrations; also recorded: lower serum 1,25(OH)2 D3 at every level of calcium intake
increase in calcium in the urine ([3]; highest dermal dose): 2.5 -fold
increase in calcium in the urine ([3]; highest gastric dose): 6 -fold

— US5532229A, “Topical administration of vitamin D to mammals” (priority 1994, dated 1996)
